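Five concentrations, 48 hours, 96-well plates. GI50 is the concentration that inhibits growth by half.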 The source made the active and inactive calls. Cut-off read from the data, not from the text of the source: active = GI50 up to about 1.1 µM and inactive = higher.
Key:
Experiment in all cases: NCI-60 cell line screen, 48 h
[1] = system: 786-0
[2] = system: A549
[3] = system: HT-29
[4] = system: KM12
[5] = system: MCF7
[6] = system: MOLT-4
[7] = system: NCI-H23
[8] = system: OVCAR-4
[9] = system: SF-295
[10] = system: SK-MEL-28
[11] = system: SK-MEL-2
[12] = system: SK-OV-3
[13] = system: SN12C
[14] = system: SR
[15] = system: SW-620
[16] = system: UACC-257
[17] = system: UO-31

| SMILES | GI50 [1] | GI50 [2] | GI50 [3] | GI50 [4] | GI50 [5] | GI50 [6] | GI50 [7] | GI50 [8] | GI50 [9] | GI50 [10] | GI50 [11] | GI50 [12] | GI50 [13] | GI50 [14] | GI50 [15] | GI50 [16] | GI50 [17] |
| --- | --- | --- | --- | --- | --- | --- | --- | --- | --- | --- | --- | --- | --- | --- | --- | --- | --- |
| COc1ccc(/C=C2\CCC/C(=C\c3ccc(O)c(CN4CCCCC4)c3)C2=O)cc1 | 4.17 µM (inactive) | 8 µM (inactive) | 2.3 µM (inactive) | 2.3 µM (inactive) | 3.73 µM (inactive) | 2.59 µM (inactive) | 4.93 µM (inactive) | 22.2 µM (inactive) | 6.95 µM (inactive) | 11.3 µM (inactive) | 11.2 µM (inactive) | 22.3 µM (inactive) | 4.76 µM (inactive) | 1.35 µM (inactive) | 3.33 µM (inactive) | 4.76 µM (inactive) | 6.75 µM (inactive) |
| CC12CCC3c4ccc(O)cc4CCC3C1C/C(=N\O)C2O (configuration not stated) | > 100 µM (inactive) | > 100 µM (inactive) | 77.6 µM (inactive) | 99.5 µM (inactive) | > 100 µM (inactive) | > 100 µM (inactive) | > 100 µM (inactive) | > 100 µM (inactive) | > 100 µM (inactive) | > 100 µM (inactive) | > 100 µM (inactive) | > 100 µM (inactive) | > 100 µM (inactive) | > 100 µM (inactive) | > 100 µM (inactive) | > 100 µM (inactive) | > 100 µM (inactive) |
| COC1(OC)c2no[n+]([O-])c2CCC1O (configuration not stated) | > 100 µM (inactive) | > 100 µM (inactive) | > 100 µM (inactive) | > 100 µM (inactive) | > 100 µM (inactive) | > 100 µM (inactive) | > 100 µM (inactive) | > 100 µM (inactive) | > 100 µM (inactive) | > 100 µM (inactive) | > 100 µM (inactive) | > 100 µM (inactive) | > 100 µM (inactive) | > 100 µM (inactive) | > 100 µM (inactive) | > 100 µM (inactive) | > 100 µM (inactive) |
| CCOC(=O)N1c2ccccc2N(C(=O)OCC)C1CC(=O)/C=C/c1ccccc1 | 3.3 µM (inactive) | 3.36 µM (inactive) | 2.94 µM (inactive) | 3.05 µM (inactive) | 3.1 µM (inactive) | 2.4 µM (inactive) | 2.88 µM (inactive) | 2.23 µM (inactive) | 4.05 µM (inactive) | 7.57 µM (inactive) | 1.94 µM (inactive) | 5.35 µM (inactive) | 3.66 µM (inactive) | 2.3 µM (inactive) | 2.06 µM (inactive) | 6.49 µM (inactive) | 3.82 µM (inactive) |
| COC(=O)c1ccccc1CC(Cc1ccccc1)C(=O)OC (configuration not stated) | 71.3 µM (inactive) | 61.9 µM (inactive) | 55.5 µM (inactive) | 87.3 µM (inactive) | 82 µM (inactive) | 27.4 µM (inactive) | 46.6 µM (inactive) | 96.8 µM (inactive) | > 100 µM (inactive) | > 100 µM (inactive) | 36.8 µM (inactive) | 36.3 µM (inactive) | > 100 µM (inactive) | 27 µM (inactive) | > 100 µM (inactive) | 72.1 µM (inactive) | 39.1 µM (inactive) |
| Cc1c(N2C(=O)/C(=C/c3ccc(N(CCC#N)CCC#N)cc3)N=C2c2ccccc2)c(=O)n(-c2ccccc2)n1C | > 100 µM (inactive) | > 100 µM (inactive) | > 100 µM (inactive) | > 100 µM (inactive) | > 100 µM (inactive) | 75.7 µM (inactive) | > 100 µM (inactive) | > 100 µM (inactive) | > 100 µM (inactive) | > 100 µM (inactive) | > 100 µM (inactive) | > 100 µM (inactive) | > 100 µM (inactive) | > 100 µM (inactive) | > 100 µM (inactive) | > 100 µM (inactive) | > 100 µM (inactive) |
| COc1cccc(-c2cc(O)c3cc(N4CCN(C)CC4)ccc3n2)c1 | 2.96 µM (inactive) | 2.39 µM (inactive) | 2.24 µM (inactive) | 1.91 µM (inactive) | 2.67 µM (inactive) | 2.91 µM (inactive) | 2.54 µM (inactive) | 5.28 µM (inactive) | 1.71 µM (inactive) | 1.47 µM (inactive) | 1.19 µM (inactive) | 2.82 µM (inactive) | 2.92 µM (inactive) | 0.42 µM (active) | 0.522 µM (active) | 0.706 µM (active) | 6.9 µM (inactive) |
| Cc1cc2c(cc1C)NC1=C(O)C(c3c[nH]c4ccc(COc5ccccc5)cc34)OC1=N2 (configuration not stated) | 30.5 µM (inactive) | > 100 µM (inactive) | > 100 µM (inactive) | > 100 µM (inactive) | 72.1 µM (inactive) | 46.9 µM (inactive) | > 100 µM (inactive) | > 100 µM (inactive) | 33.6 µM (inactive) | > 100 µM (inactive) | 58.2 µM (inactive) | 33.6 µM (inactive) | > 100 µM (inactive) | 65.9 µM (inactive) | > 100 µM (inactive) | 50 µM (inactive) | 79.8 µM (inactive) |
| CCOC(=O)c1cc(C2CCN(Cc3ccccc3)C2=O)c(C(=O)C(=[N+]=[N-])C(C)=O)[nH]1 (configuration not stated) | > 100 µM (inactive) | > 100 µM (inactive) | > 100 µM (inactive) | > 100 µM (inactive) | > 100 µM (inactive) | > 100 µM (inactive) | > 100 µM (inactive) | > 100 µM (inactive) | > 100 µM (inactive) | > 100 µM (inactive) | > 100 µM (inactive) | > 100 µM (inactive) | > 100 µM (inactive) | > 100 µM (inactive) | > 100 µM (inactive) | > 100 µM (inactive) | > 100 µM (inactive) |
| COc1ccc(/C=N/NS(=O)(=O)c2ccc(/C=C3\NC(=O)N(C)C3=O)cc2)cc1 | > 100 µM (inactive) | > 100 µM (inactive) | > 100 µM (inactive) | > 100 µM (inactive) | 40.9 µM (inactive) | 63.5 µM (inactive) | 92.9 µM (inactive) | 43.9 µM (inactive) | 55 µM (inactive) | > 100 µM (inactive) | > 100 µM (inactive) | > 100 µM (inactive) | > 100 µM (inactive) | > 100 µM (inactive) | > 100 µM (inactive) | 57.8 µM (inactive) | 50.4 µM (inactive) |
| Cc1cc2c(cc1-c1cc3c(cc1C)C(C(C)C)=C(O)C(=O)/C3=C\Nc1nc(-c3ccccc3)cs1)/C(=C/Nc1nc(-c3ccccc3)cs1)C(=O)C(O)=C2C(C)C | 21.8 µM (inactive) | 19.1 µM (inactive) | 22.2 µM (inactive) | 32.1 µM (inactive) | 18.1 µM (inactive) | 35.7 µM (inactive) | 15.5 µM (inactive) | 30.8 µM (inactive) | 15.6 µM (inactive) | 16.8 µM (inactive) | 21 µM (inactive) | 21.1 µM (inactive) | 22.3 µM (inactive) | 32.5 µM (inactive) | 15.6 µM (inactive) | 21.8 µM (inactive) | > 10 µM (inactive) |
| CC(=O)Oc1cccc2c1C(=O)CCCC2 | > 100 µM (inactive) | > 100 µM (inactive) | > 100 µM (inactive) | > 100 µM (inactive) | > 100 µM (inactive) | > 100 µM (inactive) | > 100 µM (inactive) | > 100 µM (inactive) | > 100 µM (inactive) | > 100 µM (inactive) | > 100 µM (inactive) | > 100 µM (inactive) | > 100 µM (inactive) | > 100 µM (inactive) | > 100 µM (inactive) | > 100 µM (inactive) | > 100 µM (inactive) |
| c1ccc2c(c1)c1c(n2CCOCCN2CCOCC2)CCCC1 | > 10 µM (inactive) | 45.2 µM (inactive) | 15.6 µM (inactive) | 31.8 µM (inactive) | 38.8 µM (inactive) | 25 µM (inactive) | 32.3 µM (inactive) | 14.3 µM (inactive) | 23.9 µM (inactive) | 19.5 µM (inactive) | 24.2 µM (inactive) | 55.2 µM (inactive) | > 10 µM (inactive) | 30.3 µM (inactive) | 34.1 µM (inactive) | 21.1 µM (inactive) | 27.1 µM (inactive) |
| COc1ccc2nc3c4c(nccc4c2c1)-c1ncccc1C3=O | 0.0246 µM (active) | 0.113 µM (active) | 0.499 µM (active) | 0.0748 µM (active) | 0.021 µM (active) | 0.847 µM (active) | 0.0887 µM (active) | 0.439 µM (active) | 0.08 µM (active) | 0.109 µM (active) | 0.376 µM (active) | 0.0586 µM (active) | 0.0508 µM (active) | 0.00542 µM (active) | 0.0121 µM (active) | 0.0834 µM (active) | 0.135 µM (active) |
| c1cc2cc3c4c5c(cc6ccc7cc8cc9c%10c8c8c7c6c5c8c5c%10c(c1C9N1CCOCCOCCOCCOCCOCC1)c2c45)C3 (configuration not stated) | > 100 µM (inactive) | > 100 µM (inactive) | > 100 µM (inactive) | > 100 µM (inactive) | > 100 µM (inactive) | > 100 µM (inactive) | > 100 µM (inactive) | > 100 µM (inactive) | > 100 µM (inactive) | > 100 µM (inactive) | > 100 µM (inactive) | > 100 µM (inactive) | > 100 µM (inactive) | > 100 µM (inactive) | > 100 µM (inactive) | > 100 µM (inactive) | > 100 µM (inactive) |
| CC1=CC(O)(c2ccccc2)C(N2CCOCC2)N1O (configuration not stated) | > 100 µM (inactive) | > 100 µM (inactive) | > 100 µM (inactive) | > 100 µM (inactive) | > 100 µM (inactive) | > 100 µM (inactive) | > 100 µM (inactive) | > 100 µM (inactive) | > 100 µM (inactive) | > 100 µM (inactive) | 81.1 µM (inactive) | > 100 µM (inactive) | > 100 µM (inactive) | > 100 µM (inactive) | > 100 µM (inactive) | > 100 µM (inactive) | > 100 µM (inactive) |

— ChEMBL document CHEMBL1201862, “PubChem BioAssay data set” (2004)
